Common to all, as to assay: growth of human tumour cells (NCI), 48 h
Test [1] relates to BT-549 breast.
In test [2] the test system is A549 NSCLC.
Test [3] concerns U251 CNS.
Test [4] has as its system M14 melanoma.
The test system of test [5] is MOLT-4 leukemia.
In test [6] the test system is TK-10 renal.
The test system of test [7] is SNB-19 CNS.
The subject of test [8] is HCC-2998 colon.
Test [9] deals with MDA-MB-231 breast.
Test [10] deals with UACC-62 melanoma.
Test [11] has as its system K-562 leukemia.
In test [12] the test system is 786-0 renal.
In test [13] the test system is LOX IMVI melanoma.

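A five-concentration, 48-hour dose response in 96-well plates underlies each endpoint, interpolated linearly between surrounding concentrations. TGI: total growth inhibition.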 Where a SMILES comes first, the peptide text is derived from it.

As for `CC(=O)NC(CO)C(=O)NC(Cc1ccc(O)cc1)C(=O)NCC(N)=O` (stereo not drawn) (Ac-Ser-Tyr-Gly-NH2; configuration not given here), the TGI in [1], in test [2], in test [3], in [4], in test [5] and in test [6] was more than 100 µM throughout. In addition, the TGI in test [7], in [8], in [9], in test [10], in test [11] and in [12] was more than 100 µM throughout. Besides, in [13], the TGI was more than 100 µM.

For `Cc1ccc(N2C(=O)C(=O)N(/N=C3\C(=O)Nc4ccccc43)C2=S)cc1`, the TGI in test [1], in test [2], in test [3], in test [4], in test [5] and in test [6] was more than 100 µM each time. For the same molecule, the TGI in [7], in test [8], in [9], in test [10], in [11] and in test [12] was more than 100 µM in each case. The same molecule had a TGI in [13] of more than 100 µM.

Turning to `CC(=O)Oc1cc(S(=O)(=O)Nc2n[nH]c(N)n2)c(S)cc1Cl`, the TGI in test [1], in [2], in [3], in test [4], in [5] and in [6] was more than 100 µM in each case. Further, the TGI in [7], in test [8], in test [9], in test [10], in [11] and in test [12] was more than 100 µM each time. Moreover, the TGI in [13] is more than 100 µM.

`Nc1nc(NCCOCP(=O)(O)O)c(N)c(=O)[nH]1`: the TGI in test [1], in test [2], in [3], in [4], in test [5] and in [6] was more than 100 µM each time. Also, the TGI in [7], in test [8], in test [9], in [10], in test [11] and in test [12] was more than 100 µM throughout. In addition, the TGI in test [13] is more than 100 µM.

For the molecule `CC(=O)Nc1nnc(S(=O)(=O)NC(=S)Nc2ccc(Cl)cc2)s1`, the TGI in test [1], in test [2], in test [3], in test [4], in [5] and in [6] was more than 100 µM each time. Besides, the TGI in test [7], in test [8], in [9], in test [10], in test [11] and in [12] was more than 100 µM each time. For the same molecule, the TGI in test [13] is more than 100 µM.

Turning to `CCN1C(=O)CS/C1=N\NC(=O)CSc1nc2ccccc2c(=O)n1CC`, the TGI in test [1], in test [2], in test [3], in [4], in test [5] and in [6] was more than 100 µM in each case. For the same molecule, the TGI in test [7], in test [8], in [9], in test [10], in [11] and in [12] was more than 100 µM in each case. Also, the TGI in [13] was more than 100 µM.

With `CSc1nc(C)c(CCCl)c(Cl)n1`, the TGI in test [1], in test [2], in test [3], in test [4], in test [5] and in test [6] was more than 100 µM each time. The TGI in test [7], in test [8], in test [9], in test [10], in test [11] and in test [12] was more than 100 µM throughout. Besides, the TGI in [13] was more than 100 µM.

For the molecule `COc1ccc(N2C(=O)C3c4[nH]c5ccc(OCc6ccccc6)cc5c4C4CCC(C(C)C)CC4C3C2=O)cc1` (stereo not given), the TGI in test [1] was more than 60.4 µM; in [2], more than 100 µM; in test [3], more than 73.1 µM; in test [4], more than 100 µM; in test [5], more than 71.7 µM; in [6], more than 80.4 µM. For the same molecule, the TGI in [7] is 34.9 µM; in [8], more than 100 µM; in test [9] it was 37.9 µM; in test [10] it was more than 51.7 µM; in [11], more than 68.3 µM; in test [12], more than 47.6 µM. This molecule had a TGI in test [13] of more than 100 µM.

Regarding `CNc1ncnc2c1cnn2Cc1cn(CCCCO)nn1`, the TGI in test [1], in test [2], in test [3], in [4], in test [5] and in test [6] was more than 100 µM each time. Moreover, the TGI in test [7], in [8], in test [9], in test [10], in test [11] and in test [12] was more than 100 µM throughout. The molecule also registered a TGI in test [13] of more than 100 µM.

`COc1cccc(C(=O)N[C@@H]2[C@H](O)[C@@H](CO)O[C@H]2n2cnc3c(N)ncnc32)c1`: the TGI in test [1], in [2], in test [3], in test [4], in test [5] and in [6] was more than 100 µM throughout. For the same molecule, the TGI in test [7], in [8], in [9], in test [10], in test [11] and in test [12] was more than 100 µM in each case. Besides, in [13], the TGI was more than 100 µM.

The values are drawn from PubChem BioAssay (NCI).
